According to the NIST ThermoML archive (doi:10.1016/j.tca.2017.12.013):
Numbers after ± are expanded uncertainties.

Tests used:
[1] = Molar enthalpy of transition or fusion; conditions: DSC

Triple point temperature (Crystal 2, DSC): 858 ± 1 K
Triple point temperature (Crystal 2, Volume change): 865 ± 10 K
Triple point temperature (Crystal 3, DSC): 451 ± 1 K
Triple point temperature (Crystal 3, Volume change): 456 ± 5 K
Molar enthalpy of transition or fusion ([1]; Crystal 2): 0.287 ± 0.143 kcal/mol
Molar enthalpy of transition or fusion ([1]; Crystal 3): 1 ± 0.191 kcal/mol
SMILES: [Ag+].[Ag+].[S-2] [silver sulfide]
